# Columns and labels:
# [1] = improvement of ruminant feed efficiency; format: in vivo
# Procedure: Suitable rates of administration are in the range of from about 10 to about 100 g/ton (from about 11 to about 111 ppm) of feed, or from about 0.25 mg to about 2.9 mg/kg of body weight of the ruminant. The preferred level of administration of A-32256 is from about 0.5 to about 1 mg/kg of body weight of ruminant, or about 50 g/ton of feed.
# Eubacterium aerofaciens = assay: agar-dilution MIC vs. anaerobic bacteria; format: cell-based; settings: strain 1235; Table 6
# potentiometric titration = format: physicochemical; settings: 66% dimethylformamide in water, initial pH 4.1
# Procedure: Antibiotic A-32256 is a green, crystalline solid having a melting point of about 196°-198° C. The antibiotic has a molecular weight of 402, as determined by electron-impact mass spectrometry, and an approximate elemental analysis as follows: 68.71% carbon, 4.48% hydrogen, 6.93% nitrogen, and 19.21% oxygen. Based on elemental analysis and molecular weight, an empirical formula of C23 H18 N2 O5 is assigned to antibiotic A-32256. […] Antibiotic A-32256 has specific rotation of [α]D^25 +5° (c 0.96, chloroform).
# Bacteroides corrodens = assay: agar-dilution MIC vs. anaerobic bacteria; format: cell-based; settings: Eikenella corrodens; strain 1874; Table 6
# Clostridium septicum = assay: agar-dilution MIC vs. anaerobic bacteria; format: cell-based; settings: strain 1128, Table 6
# Procedure: (§1) The agar-dilution procedure described by the International Collaborative Study (ICS) group was used to determine MIC values.
# (§2) The MIC was determined by the agar-dilution method.
# Actinomyces israellii = assay: agar-dilution MIC vs. anaerobic bacteria; format: cell-based; settings: strain W855; Table 6
# Procedure: as §1, §2
# [2] = tested on: Bacteroides thetaiotaomicron; assay: agar-dilution MIC vs. anaerobic bacteria; format: cell-based
# Procedure: as §1, §2
# Peptococcus prevoti = assay: agar-dilution MIC vs. anaerobic bacteria; format: cell-based
# Procedure: as §1, §2
# Propionibacterium acnes = assay: agar-dilution MIC against Propionibacterium acnes; format: cell-based; settings: Cutibacterium acnes, Table 7
# Description: as §1
# Antibiotic A-32256 is also active against a genus of anaerobic bacteria identified as Propionibacterium acnes, the MIC values being determined by the agar-dilution method, and set forth in Table 7, which follows.
# [3] = tested on: Peptostreptococcus intermedius; assay: agar-dilution MIC vs. anaerobic bacteria; format: cell-based; settings: strain 1264, Table 6
# [4] = tested on: Streptococcus sp. (Group D); assay: disc-plate screening procedure, zone of inhibition; settings: read-out: Zone Diameter
compound,measurement,setting,value
"Cc1cccc(O)c1C(=O)OC(C)c1cccc2nc3c(C(=O)O)cccc3nc12 (stereo not shown) [Antibiotic A-32256, 6-[1-[(2-hydroxy-6-methylbenzoyl)oxy]-ethyl]-1-phenazinecarboxylic acid]",improvement of ruminant feed efficiency,[1],has shown utility for the improvement of ruminant feed efficiency
same,MIC,Eubacterium aerofaciens,2 µg/mL
same,pKa,"potentiometric titration; pH 4.1, first titratable group",~5.02
same,pKa,"potentiometric titration; pH 4.1, second titratable group",~7.2
same,MIC,Bacteroides corrodens,≤ 0.5 µg/mL
same,MIC,Clostridium septicum,≤ 0.5 µg/mL
same,MIC,Actinomyces israellii,16 µg/mL
same,MIC,[2],≤ 0.5 µg/mL
same,MIC,Peptococcus prevoti,≤ 0.5 µg/mL
same,MIC,Propionibacterium acnes; P. acnes 44,≤ 0.015 µg/mL
same,MIC,Propionibacterium acnes; P. acnes 79,≤ 0.015 µg/mL
same,MIC,Propionibacterium acnes; P. acnes 101,≤ 0.015 µg/mL
same,MIC,Propionibacterium acnes; P. acnes 103,≤ 0.015 µg/mL
same,MIC,Propionibacterium acnes; P. acnes 104,≤ 0.015 µg/mL
same,MIC,Propionibacterium acnes; P. acnes 105,0.03 µg/mL
same,MIC,Propionibacterium acnes; P. acnes 106,0.06 µg/mL
same,MIC,Propionibacterium acnes; P. acnes 107,≤ 0.015 µg/mL
same,MIC,Propionibacterium acnes; P. acnes 108,0.03 µg/mL
same,MIC,Propionibacterium acnes; P. acnes 5170,≤ 0.015 µg/mL
same,MIC,Propionibacterium acnes; P. acnes 5176,≤ 0.015 µg/mL
same,MIC,Propionibacterium acnes; P. acnes 5187,≤ 0.015 µg/mL
same,MIC,Propionibacterium acnes; P. acnes 5191,0.06 µg/mL
same,MIC,Propionibacterium acnes; P. acnes 5197,≤ 0.015 µg/mL
same,MIC,Propionibacterium acnes; P. acnes 5226,≤ 0.015 µg/mL
same,MIC,Propionibacterium acnes; P. acnes 5227,≤ 0.015 µg/mL
same,MIC,Propionibacterium acnes; P. acnes 5228,≤ 0.015 µg/mL
same,MIC,Propionibacterium acnes; P. acnes 5229,0.03 µg/mL
same,MIC,Propionibacterium acnes; P. acnes 5246,≤ 0.015 µg/mL
same,MIC,[3],≤ 0.5 µg/mL
same,zone of inhibition at 30 µg/disc,[4],18.2 mm
same,zone of inhibition at 300 µg/disc,[4],21 mm
